Results taken from patent publication US7378440B2, “Substituted benzoylureido-o-benzoylamides, process for their preparation and their use” (Sanofi-Aventis Deutschland GmbH, priority 2003, dated 2008).

Tests used:
[1] = molecular target: T1, human glycogen phosphorylase a (Homo sapiens, UniProt P06737); experiment: Glycogen phosphorylase a activity assay; format: biochemical; settings: inhibition of GPa measured in reverse direction (glycogen synthesis from glucose 1-phosphate, liberated phosphate, absorption 820 nm)
T1 sequence (P06737 1-847): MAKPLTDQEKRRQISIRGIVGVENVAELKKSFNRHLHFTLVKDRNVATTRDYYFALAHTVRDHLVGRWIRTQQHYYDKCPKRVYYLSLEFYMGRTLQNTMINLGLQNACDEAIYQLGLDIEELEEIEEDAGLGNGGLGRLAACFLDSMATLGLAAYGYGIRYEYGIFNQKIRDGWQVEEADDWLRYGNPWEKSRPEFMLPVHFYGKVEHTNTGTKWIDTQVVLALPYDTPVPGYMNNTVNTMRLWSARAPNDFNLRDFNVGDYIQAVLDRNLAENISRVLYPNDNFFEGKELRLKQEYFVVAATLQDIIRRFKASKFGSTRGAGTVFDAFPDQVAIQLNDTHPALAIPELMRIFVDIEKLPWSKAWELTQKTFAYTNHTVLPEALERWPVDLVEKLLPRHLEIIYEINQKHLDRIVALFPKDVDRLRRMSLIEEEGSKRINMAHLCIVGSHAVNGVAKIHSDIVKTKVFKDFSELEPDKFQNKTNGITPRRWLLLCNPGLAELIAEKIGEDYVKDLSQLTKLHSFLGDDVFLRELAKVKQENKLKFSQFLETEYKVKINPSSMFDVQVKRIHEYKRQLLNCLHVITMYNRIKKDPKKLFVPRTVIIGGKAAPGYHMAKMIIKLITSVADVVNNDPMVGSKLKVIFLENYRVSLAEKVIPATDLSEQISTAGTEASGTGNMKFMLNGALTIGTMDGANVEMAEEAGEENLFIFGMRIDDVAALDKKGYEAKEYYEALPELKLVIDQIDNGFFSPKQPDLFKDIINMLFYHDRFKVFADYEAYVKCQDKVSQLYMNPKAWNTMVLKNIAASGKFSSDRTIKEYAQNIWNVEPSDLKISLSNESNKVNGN
Method: Glycogen Phosphorylase a Activity Assay
The effect of compounds on the activity of the active form of glycogen phosphorylase (GPa) was measured in the reverse direction by following the synthesis of glycogen from glucose 1-phosphate by determining the liberation of inorganic phosphate. All the reactions were carried out as duplicate determinations in microtiter plates with 96 wells (Half Area Plates, Costar No 3696), measuring the change in absorption owing to the formation of the reaction product at the wavelength specified hereinafter in a Multiskan Ascent Elisa Reader (Lab Systems, Finland).
In order to measure the GPa enzymic activity in the reverse direction, the general method of Engers et al. (Engers H D, Shechosky S, Madsen N B, Can J Biochem 1970 July;48(7):746-754) was used to measure the conversion of glucose 1-phosphate into glycogen and inorganic phosphate, with the following modifications: human glycogen phosphorylase a (for example with 0.76 mg of protein/ml (Aventis Pharma Deutschland GmbH), dissolved in buffer solution E (25 mM β-glycerophosphate, pH 7.0, 1 mM EDTA and 1 mM dithiothreitol) was diluted with buffer T (50 mM Hepes, pH 7.0, 100 mM KCl, 2.5 mM EDTA, 2.5 mM MgCl2.6H2O) and addition of 5 mg/ml glycogen to a concentration of 10 μg of protein/ml. Test substances were prepared as 10 mM solution in DMSO and diluted to 50 μM with buffer solution T. To 10 μl of this solution were added 10 μl of 37.5 mM glucose, dissolved in buffer solution T, and 5 mg/ml glycogen, plus 10 μt of a solution of human glycogen phosphorylase a (10 μg of protein/ml) and 20 μl of glucose 1-phosphate, 2,5 mM. The baseline glycogen phosphorylase a activity in the absence of test substance was determined by adding 10 μl of buffer solution T (0.1% DMSO). The mixture was incubated at room temperature for 40 minutes, and the liberated […] was measured by the general method of Drueckes et al. (Drueckes P, Schinzel R, Palm D, Anal Biochem 1995 Sep. 1;230(1):173-177) with the following modifications: 50 μl of a stop solution of 7.3 mM ammonium molybdate, 10.9 mM zinc acetate, 3.6% ascorbic acid, 0.9% SDS are added to 50 μl of the enzyme mixture. After incubation at 45° C. for 60 minutes, the absorption at 820 nm was measured. To determine the background absorption, in a separate mixture the stop solution was added immediately after addition of the glucose 1-phosphate solution. […]

Structure (SMILES) | IC50 [1] | melting point
O=C(NC(=O)c1cc(F)c(F)cc1Cl)Nc1ccccc1C(=O)N1CCC[C@@H]1C(=O)O [Example 1, R-1-{2-[3-(2-Chloro-4,5-difluorobenzoyl)ureido]benzoyl}pyrrolidine-2-carboxylic acid] | 30 nM | 123.5 °C
O=C(NC(=O)c1cc(F)c(F)cc1Cl)Nc1ccccc1C(=O)N1CCC[C@H]1C(=O)O [Example 2] | 2100 nM | 128.4 °C
O=C(NC(=O)c1cc(F)c(F)cc1Cl)Nc1ccccc1C(=O)N1CCCC1C(=O)O (stereo not shown) [Example 3] | 120 nM | 193.1 °C
COC(=O)[C@H]1CCCN1C(=O)c1ccccc1NC(=O)NC(=O)c1cc(F)c(F)cc1Cl [Example 4] | 570 nM | 
O=C(NC(=O)c1cc(F)c(F)cc1Cl)Nc1ccccc1C(=O)N1CCC1C(=O)O (stereo not shown) [Example 5] | 30 nM | 99 °C
O=C(NC(=O)c1cc(F)c(F)cc1Cl)Nc1ccccc1C(=O)N1CC(F)(F)CC1C(=O)O (stereo not shown) [Example 6] | 1400 nM | 102 °C
O=C(NC(=O)c1cc(F)c(F)cc1Cl)Nc1ccccc1C(=O)N1C2CCCCC2C[C@H]1C(=O)O (stereo partly shown) [Example 7] | 4000 nM | 125 °C
